This is an account of results in US8580965B2, “Substituted sulfonamide compounds” (Gruenenthal GmbH, priority 2006, dated 2013).

Test [1] concerns the target T1, human B1R receptor (bradykinin 1 receptor) (Homo sapiens, UniProt P46663).
T1 construct: host or cells: CHO K1 cells (hB1R cells)
T1 sequence (P46663 1-353): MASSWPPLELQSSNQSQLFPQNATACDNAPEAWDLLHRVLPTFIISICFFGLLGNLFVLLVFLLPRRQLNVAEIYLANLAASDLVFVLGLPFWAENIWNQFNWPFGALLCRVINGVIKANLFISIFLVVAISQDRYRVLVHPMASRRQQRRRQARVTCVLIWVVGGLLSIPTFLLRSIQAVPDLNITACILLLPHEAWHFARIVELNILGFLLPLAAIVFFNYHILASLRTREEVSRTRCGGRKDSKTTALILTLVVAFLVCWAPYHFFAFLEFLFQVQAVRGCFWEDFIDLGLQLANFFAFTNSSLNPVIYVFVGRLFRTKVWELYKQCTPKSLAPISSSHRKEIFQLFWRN
Nature of the test: FLIPR Ca2+ assay (Fluo-4) on CHO K1 cells stably transfected with the human B1R gene; % activation and % inhibition at 10 μM. The settings on record: CHO K1 hB1R cells, Ca2+ inflow after 0.5 nM Lys-Des-Arg9-bradykinin; for inhibition at 10 µM: CHO-K1, test substance 10 μM, read-out: B1R antagonism, human [10 μM] % inhibition. The format is cell-based. The essentials:
(§1)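 Fluo-4 Ca2+ flux on FLIPR in stable hB1R or rB1R CHO K1 lines, two additions. Agonism: 10 µM compound versus 0.5 nM Lys-Des-Arg9-BK (human) or 100 nM Des-Arg9-BK (rat); antagonism: same agonists applied 10 min later, suppression expressed against maximum achievable inhibition.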

Test [2] concerns the target T2, B1R receptor of the rat (bradykinin 1 receptor) (Rattus norvegicus, UniProt P97583).
T2 construct: host or cells: CHO K1 cells (rB1R cells)
T2 sequence (P97583 1-337): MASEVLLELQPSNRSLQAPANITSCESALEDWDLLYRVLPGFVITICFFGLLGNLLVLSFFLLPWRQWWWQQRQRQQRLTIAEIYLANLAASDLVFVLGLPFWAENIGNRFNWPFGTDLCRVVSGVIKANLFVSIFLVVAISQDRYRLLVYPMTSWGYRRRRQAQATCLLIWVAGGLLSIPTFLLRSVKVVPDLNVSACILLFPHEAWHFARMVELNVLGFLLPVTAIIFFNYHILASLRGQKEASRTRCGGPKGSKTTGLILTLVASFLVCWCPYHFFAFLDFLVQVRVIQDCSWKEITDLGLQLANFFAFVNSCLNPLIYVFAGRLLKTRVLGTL
As to the kind of experiment: FLIPR Ca2+ assay (Fluo-4) on CHO K1 cells stably transfected with the B1R gene of the rat; % activation and % inhibition at 10 μM. It is filed as cell-based. The settings on record: CHO K1 rB1R cells, Ca2+ inflow after 100 nM Des-Arg9-bradykinin; for inhibition at 10 µM: CHO-K1, test substance 10 μM, read-out: B1R antagonism, rat [10 μM] % inhibition. The essentials:
as §1

For the compound `O=C(COCC1Cc2ccccc2CN1S(=O)(=O)c1ccccc1)N1CCC(O)(c2ccccn2)CC1` (stereo not shown) [Example 73, 2-(2-phenylsulfonyl-1,2,3,4-tetrahydro-isoquinolin-3-ylmethoxy)-1-(4′-hydroxy-3′,4′,5′,6′-tetrahydro-2′H-[2,4′]bipyridinyl-1′-yl)-ethanone], the inhibition at 10 µM in test [1] was -7.27%; in test [2], 14.4%.
The like results for `COc1cc(C)c(S(=O)(=O)N(CCOCC(=O)N2CCC(O)(c3cccnc3)CC2)CC2CC2)c(C)c1C` [Example 240, N-(cyclopropylmethyl)-N-(2-(2-(4-hydroxy-4-(pyridin-3-yl)piperidin-1-yl)-2-oxoethoxy)ethyl)-4-methoxy-2,3,6-trimethylphenylsulfonamide] were, in that order, 103% and 99.4%.
On to `O=C(COCC1Cc2ccccc2CN1S(=O)(=O)c1ccc(Cl)cc1Cl)N1CCC(O)(c2ccc(Cl)cc2)CC1` (stereo not shown) [Example 79, 1-(4-(4-chlorophenyl)-4-hydroxypiperidin-1-yl)-2-((2-(2,4-dichlorophenylsulfonyl)-1,2,3,4-tetrahydroisoquinolin-3-yl)methoxy)ethanone], for which the inhibition at 10 µM stood at 47.3% in test [1] and 70.7% in test [2].
Take `O=C(COCC1CCCCN1S(=O)(=O)c1cccc(C(F)(F)F)c1)N1CCC(O)(c2ccccn2)CC1` (stereo not shown) [Example 96, 1-(4′-hydroxy-3′,4′,5′,6′-tetrahydro-2′H-[2,4′]bipyridinyl-1′-yl)-2-[1-(3-trifluoromethyl-phenylsulfonyl)-piperidin-2-ylmethoxy]-ethanone]: the inhibition at 10 µM is 50.5% in test [1] and 46.2% in test [2].
In the same order, the values of `O=C(COCC1CCCCN1S(=O)(=O)c1ccccc1C(F)(F)F)N1CCC(O)(c2ccc(Cl)c(C(F)(F)F)c2)CC1` (stereo not shown) [Example 178, 1-(4-(4-chloro-3-(trifluoromethyl)phenyl)-4-hydroxypiperidin-1-yl)-2-((1-(2-(trifluoromethyl)phenylsulfonyl)piperidin-2-yl)methoxy)ethanone] are 89.4% and 104%.
On to `Cc1cc(C)c(S(=O)(=O)N2CCCCC2COCC(=O)N2CCC(O)(c3ccccn3)CC2)c(C)c1` (stereo not shown) [Example 94, 1-(4′-hydroxy-3′,4′,5′,6′-tetrahydro-2′H-[2,4′]bipyridinyl-1′-yl)-2-[1-(2,4,6-trimethyl-phenylsulfonyl)-piperidin-2-ylmethoxy]-ethanone], for which the figures for the inhibition at 10 µM in test [1] and in test [2] were 104% and 103%, respectively.
In the case of `O=C(COCC1Cc2ccccc2CN1S(=O)(=O)c1ccc(Cl)cc1Cl)N1CCC(O)(c2cccnc2)CC1` (stereo not shown) [Example 92, 2-[2-(2,4-dichloro-phenylsulfonyl)-1,2,3,4-tetrahydro-isoquinolin-3-ylmethoxy]-1-(4′-hydroxy-3′,4′,5′,6′-tetrahydro-2′H-[3,4′]bipyridinyl-1′-yl)-ethanone], in test [1] (test substance 10 μM), the “B1R antagonism, human [10 μM] % inhibition” value was found to be 101.02%. For the same compound, the “B1R antagonism, rat [10 μM] % inhibition” value in test [2] (test substance 10 μM) worked out at 97.98%.
With `COc1cc(C)c(S(=O)(=O)N(CCOCC(=O)N2CCC(O)(c3cccnc3)CC2)Cc2ccccc2)c(C)c1` [Example 130, N-benzyl-N-(2-(2-(4-hydroxy-4-(pyridin-3-yl)piperidin-1-yl)-2-oxoethoxy)ethyl)-4-methoxy-2,6-dimethylphenylsulfonamide], the values for the inhibition at 10 µM in test [1] and in test [2] were 103% and 98.6%, respectively.
Turning to `COc1cc(C)c(S(=O)(=O)N(CCOCC(=O)N2CCC(O)(c3cccnc3)CC2)CC(C)C)c(C)c1C` [Example 241, N-(2-(2-(4-hydroxy-4-(pyridin-3-yl)piperidin-1-yl)-2-oxoethoxy)ethyl)-N-isobutyl-4-methoxy-2,3,6-trimethylphenylsulfonamide], the inhibition at 10 µM came to 103% in test [1] and 101% in test [2].
On to `O=C(COCC1CCCCN1S(=O)(=O)c1cc(Cl)sc1Cl)N1CCC(O)(c2ccccc2)CC1` (stereo not shown) [Example 271, 2-((1-(2,5-dichlorothiophen-3-ylsulfonyl)piperidin-2-yl)methoxy)-1-(4-hydroxy-4-phenylpiperidin-1-yl)ethanone], for which the inhibition at 10 µM is 41.9% in test [1] and 78.3% in test [2].
In the case of `Cc1cc(Cl)cc(Cl)c1S(=O)(=O)N(C)CCOCC(=O)N1CCC(O)(Cc2ccccc2)CC1` [Example 106, N-{2-[2-(4-benzyl-4-hydroxy-piperidin-1-yl)-2-oxo-ethoxy]-ethyl}-2,4-dichloro-6,N-dimethyl-phenylsulfonamide], the inhibition at 10 µM in test [1] amounted to 97.8%; in test [2], 96.1%.
The like results for `COc1ccc(S(=O)(=O)N2CCC(OCC(=O)N3CCC(O)(c4ccccn4)CC3)C2)cc1OC` (stereo not shown) [Example 52, 2-[1-(3,4-dimethoxy-phenylsulfonyl)-pyrrolidin-3-yloxy]-1-(4′-hydroxy-3′,4′,5′,6′-tetrahydro-2′H-[2,4′]bipyridinyl-1′-yl)-ethanone] were, in that order, -10% and 11.9%.
Take `O=C(COCC1CCCCN1S(=O)(=O)c1ccccc1C(F)(F)F)N1CCC(O)(c2cccnc2)CC1` (stereo not shown) [Example 172, 1-(4-hydroxy-4-(pyridin-3-yl)piperidin-1-yl)-2-((1-(2-(trifluoromethyl)phenylsulfonyl)piperidin-2-yl)methoxy)ethanone]: the inhibition at 10 µM in test [1] amounted to 103%; in test [2] it was 105%.
`COc1cc(C)c(S(=O)(=O)N(CCOCC(=O)N2CCC(O)(c3ccc(Cl)c(C(F)(F)F)c3)CC2)CC2CC2)c(C)c1C` [Example 237, N-(2-(2-(4-(4-chloro-3-(trifluoromethyl)phenyl)-4-hydroxypiperidin-1-yl)-2-oxoethoxy)ethyl)-N-(cyclopropylmethyl)-4-methoxy-2,3,6-trimethylphenyl-sulfonamide]: the results for the inhibition at 10 µM in test [1] and in test [2] were 103% and 100%, respectively.
Take `CN(C1CCCCC1OCC(=O)N1CCC(O)(Cc2ccccc2)CC1)S(=O)(=O)c1ccc(Cl)c(Cl)c1` (stereo not shown) [Example 43, N-{2-[2-(4-benzyl-4-hydroxy-piperidin-1-yl)-2-oxo-ethoxy]-cyclohexyl}-3,4-dichloro-N-methyl-phenylsulfonamide]: the inhibition at 10 µM in test [1] is -1.29%; in test [2], 33.9%.
As for `O=C(COCC1CCN(S(=O)(=O)c2c(Cl)cc(Cl)cc2Cl)C1)N1CCC(O)(c2ccc(Cl)cc2)CC1` (stereo not shown) [Example 272, 1-(4-(4-chlorophenyl)-4-hydroxypiperidin-1-yl)-2-((1-(2,4,6-trichlorophenylsulfonyl)pyrrolidin-3-yl)methoxy)ethanone], the inhibition at 10 µM in test [1] stood at 54.1%; in test [2], 24.1%.
On to `CN(c1ccccc1CCC(=O)N1CCC(O)(c2cccnc2)CC1)S(=O)(=O)c1ccc(Cl)c(Cl)c1` [Example 125, 3,4-dichloro-N-(2-(3-(4-hydroxy-4-(pyridin-3-yl)piperidin-1-yl)-3-oxopropyl)phenyl)-N-methylphenylsulfonamide], for which the inhibition at 10 µM in test [1] stood at 93.2%; in test [2] it was 91.4%.
`Cc1cc(S(=O)(=O)N2CCCCC2CCC(=O)N2CCC(O)(c3cccc(F)c3)CC2)c(C)cc1Cl` (stereo not shown) [Example 120, 3-(1-(4-chloro-2,5-dimethylphenylsulfonyl)piperidin-2-yl)-1-(4-(3-fluorophenyl)-4-hydroxypiperidin-1-yl)propan-1-one]: the inhibition at 10 µM in test [1] turned out to be 58.4%; in test [2], 45.9%.
With `COc1cc(C)c(S(=O)(=O)N(CCOCC(=O)N2CCC(O)(c3ccc(Cl)c(C(F)(F)F)c3)CC2)CC(C)C)c(C)c1C` [Example 238, N-(2-(2-(4-(4-chloro-3-(trifluoromethyl)phenyl)-4-hydroxypiperidin-1-yl)-2-oxoethoxy)ethyl)-N-isobutyl-4-methoxy-2,3,6-trimethylphenylsulfonamide], the inhibition at 10 µM in test [1] is 57.3%; in test [2] it was 97.4%.
Consider `O=C(COCC1CCCN1S(=O)(=O)c1c(Cl)cc(C(F)(F)F)cc1Cl)N1CCC(O)(c2cccc(C(F)(F)F)c2)CC1` (stereo not shown) [Example 170, 2-((1-(2,6-dichloro-4-(trifluoromethyl)phenylsulfonyl)pyrrolidin-2-yl)methoxy)-1-(4-hydroxy-4-(3-(trifluoromethyl)phenyl)piperidin-1-yl)ethanone], for which the figures for the inhibition at 10 µM in test [1] and in test [2] were 25.7% and 103%, respectively.
